Test results published in ChEMBL document CHEMBL4419164, “Methods and compositions for inhibiting cnksr1” (2018).
Activity calls are given as the source filed them. No cut-off for these calls is given here.

Key:
[1] = target: T1, Connector enhancer of kinase suppressor of ras 1 (Homo sapiens) (UniProt Q969H4); test: Inhibition of CNKSR1 (unknown origin) assessed as reduction in inhibition of KRas signaling effectors by measuring p-MAPK levels at 20 uM by cell based assay
T1 sequence (whole entry): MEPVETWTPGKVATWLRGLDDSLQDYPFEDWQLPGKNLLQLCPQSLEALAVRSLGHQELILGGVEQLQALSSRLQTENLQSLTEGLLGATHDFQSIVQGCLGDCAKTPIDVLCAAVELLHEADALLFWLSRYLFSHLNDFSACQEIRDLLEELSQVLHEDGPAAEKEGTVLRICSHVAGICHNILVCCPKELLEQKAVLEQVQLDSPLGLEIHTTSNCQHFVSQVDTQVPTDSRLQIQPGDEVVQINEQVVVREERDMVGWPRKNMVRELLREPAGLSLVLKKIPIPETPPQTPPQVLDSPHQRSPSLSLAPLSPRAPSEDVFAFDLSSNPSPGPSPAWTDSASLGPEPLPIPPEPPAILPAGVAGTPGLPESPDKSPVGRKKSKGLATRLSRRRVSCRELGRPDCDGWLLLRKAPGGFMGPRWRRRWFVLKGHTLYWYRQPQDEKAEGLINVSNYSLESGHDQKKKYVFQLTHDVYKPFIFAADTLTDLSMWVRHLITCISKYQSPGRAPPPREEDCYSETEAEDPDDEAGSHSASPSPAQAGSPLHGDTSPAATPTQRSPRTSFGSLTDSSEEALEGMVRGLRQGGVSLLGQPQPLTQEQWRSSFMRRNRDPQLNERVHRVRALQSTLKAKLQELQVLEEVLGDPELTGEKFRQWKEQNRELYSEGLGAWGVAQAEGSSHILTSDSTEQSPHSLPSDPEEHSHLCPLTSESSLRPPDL

[2] = Half life in 10% fetal bovine serum at 50 ug/ml at 37 degC at pH 7.4; format: ADME, cell-free, Bos taurus; details: cattle
[3] = system: NCI-H1373; test: Growth inhibition of human NCI-H1373 cells relative to control; format: functional, cell-based
[4] = target: T1, Connector enhancer of kinase suppressor of ras 1 (Homo sapiens); test: Inhibition of CNKSR1 (unknown origin) assessed as reduction in inhibition of KRas signaling effectors by measuring p-AKT levels at 20 uM by cell based assay
[5] = Toxicity in SCID mouse xenografted with human NCI-H2122 cells assessed as induction of observable toxic effects at 200 mg/kg/day dosed via gavage daily for 20 days; format: organism-based; details: in vivo, po, 480 h
[6] = system: HCC95; test: Growth inhibition of human HCC95 cells incubated for 3 days; format: functional, cell-based; details: HCC95, 72 h
[7] = system: NCI-H2122; test: Growth inhibition of human NCI-H2122 cells relative to control; format: functional, cell-based
[8] = target: T1, Connector enhancer of kinase suppressor of ras 1 (Homo sapiens); test: Inhibition of GFP-tagged CNKSR1 (unknown origin) expressed in HEK293T cells assessed as inhibition of direct binding of CNKSR1 to mut-KRAS at 50 uM incubated for 4 hrs by fluorescence lifetime imaging microscopy; format: cell-based
[9] = target: T1, Connector enhancer of kinase suppressor of ras 1 (Homo sapiens); test: Inhibition of GFP-tagged CNKSR1 (unknown origin) expressed in HEK293T cells assessed as blocking of membrane colocalization of CNKSR1 and mutant-KRas at plasma membrane at 50 uM incubated for 4 hrs by confocal imaging assay; format: cell-based
[10] = target: T2, Connector enhancer of kinase suppressor of ras 1 (Homo sapiens, UniProt Q969H4); test: Binding affinity to CNKSR1 PH-domain (unknown origin) by SPR spectroscopy; details: read-out: Kd
T2 sequence (Q969H4 whole entry): T1 sequence (whole entry)

[11] = target: T3, carboxylesterase 2 (cocaine esterase) (Homo sapiens, UniProt O00748); test: Stability assessed as recombinant human carboxyesterase-2 mediated compound hydrolysis by measuring half life at 50 ug/ml at 37 degC at pH 7.4; format: ADME; details: recombinant human carboxylesterase-2, pH 7.4
T3 sequence (O00748 whole entry): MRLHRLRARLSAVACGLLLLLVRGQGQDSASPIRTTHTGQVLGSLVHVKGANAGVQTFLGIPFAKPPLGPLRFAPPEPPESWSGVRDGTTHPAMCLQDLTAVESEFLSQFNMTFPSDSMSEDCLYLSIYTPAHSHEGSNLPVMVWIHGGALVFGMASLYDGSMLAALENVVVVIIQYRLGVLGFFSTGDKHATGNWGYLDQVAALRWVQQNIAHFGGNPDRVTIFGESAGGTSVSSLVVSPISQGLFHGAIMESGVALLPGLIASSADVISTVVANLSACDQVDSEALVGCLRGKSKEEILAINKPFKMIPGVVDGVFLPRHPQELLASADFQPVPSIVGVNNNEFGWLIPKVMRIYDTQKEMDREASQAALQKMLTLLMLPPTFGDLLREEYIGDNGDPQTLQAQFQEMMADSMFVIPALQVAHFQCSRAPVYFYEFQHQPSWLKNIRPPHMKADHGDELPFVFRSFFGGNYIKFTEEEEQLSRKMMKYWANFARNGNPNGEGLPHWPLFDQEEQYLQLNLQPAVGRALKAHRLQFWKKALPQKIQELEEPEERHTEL

[12] = system: A549; test: Growth inhibition of human A549 cells relative to control; format: functional, cell-based
[13] = system: NCI-H2122; test: Antitumor activity against human NCI-H2122 cells xenografted in SCID mouse assessed as inhibition of tumor growth at 200 mg/kg/day dosed via gavage daily for 20 days relative to control; format: functional; details: NCI-H2122, po, 480 h, read-out: TGI

- inhibition [1]: Active
- half-life at 50 ug/ml [2]: 13.2 h
- inhibition [4]: Active
- IC50 [6]: > 100 µM
- inhibition [8]: Active
- inhibition [9]: Active
- Kd [10]: 1.8 to 3.2 µM
- half-life at 50 ug/ml [11]: 1.65 h
Compound: CCOC(=O)Cc1nn(Cc2nc(-c3ccc(C)cc3)cs2)c(=O)c2ccccc12
- growth inhibition (GI) [3]: Active
- Activity [5]: Non-Toxic
- growth inhibition (GI) [7]: Active
- growth inhibition (GI) [12]: Active
- inhibition in vivo at 200 mg/kg/day [13]: 45%
